According to PubChem BioAssay AID1919013 (Molecular Pharmacology Branch, DTP, NCI, 2023):
Values joined by “and” are separate entries in the source; they are usually repeats but may differ in a detail not shown here. Equal values may be shown once.

System: LG0703-F498-PDC complex spheroid growth
Assay: Anticancer human tumor LG0703-F498-PDC patient-derived lung adenocarcinoma cell line growth inhibition [AhR]
Details: for viability, T/C: stronger effect = lower value
Method in brief: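 Complex tumor spheroids co-cultured with HUVEC and human MSC stroma; AhR antagonists tested in combination with standard-of-care and investigational agents. Top concentration at or near clinical Cmax (else 10 microM), half-log dilutions; growth expressed as percent test/control.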

[1] = curve of first compound, second compound 0.1 µM
[2] = curve of first compound, second compound 0.316 µM
[3] = curve of first compound, second compound 1 µM
[4] = curve of first compound, second compound 3.16 µM
[5] = curve of first compound, second compound 10 µM
[6] = second compound 0.1 µM, first compound 0.0316 µM
[7] = second compound 0.1 µM, first compound 0.1 µM
[8] = second compound 0.1 µM, first compound 0.316 µM
[9] = second compound 0.1 µM, first compound 1 µM
[10] = second compound 0.1 µM, first compound 3.16 µM
[11] = second compound 0.1 µM, first compound 10 µM
[12] = second compound 0.316 µM, first compound 0.0316 µM
[13] = second compound 0.316 µM, first compound 0.1 µM
[14] = second compound 0.316 µM, first compound 0.316 µM
[15] = second compound 0.316 µM, first compound 1 µM
[16] = second compound 0.316 µM, first compound 3.16 µM
[17] = second compound 0.316 µM, first compound 10 µM
[18] = second compound 1 µM, first compound 0.0316 µM
[19] = second compound 1 µM, first compound 0.1 µM
[20] = second compound 1 µM, first compound 0.316 µM
[21] = second compound 1 µM, first compound 1 µM
[22] = second compound 1 µM, first compound 3.16 µM
[23] = second compound 1 µM, first compound 10 µM
[24] = second compound 3.16 µM, first compound 0.0316 µM
[25] = second compound 3.16 µM, first compound 0.1 µM
[26] = second compound 3.16 µM, first compound 0.316 µM
[27] = second compound 3.16 µM, first compound 1 µM
[28] = second compound 3.16 µM, first compound 3.16 µM
[29] = second compound 3.16 µM, first compound 10 µM
[30] = second compound 10 µM, first compound 0.0316 µM
[31] = second compound 10 µM, first compound 0.1 µM
[32] = second compound 10 µM, first compound 0.316 µM
[33] = second compound 10 µM, first compound 1 µM
[34] = second compound 10 µM, first compound 3.16 µM
[35] = second compound 10 µM, first compound 10 µM
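Also: luminescence taken as a proxy for viable cell amount.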
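For viability, T/C in this document: percent of DMSO vehicle control where 100% means growth equal to vehicle.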

Structure (SMILES) | IC50 [1] [nM] | IC50 [2] [nM] | IC50 [3] [nM] | IC50 [4] [nM] | IC50 [5] [nM] | viability, T/C [6] [%] | viability, T/C [7] [%] | viability, T/C [8] [%] | viability, T/C [9] [%] | viability, T/C [12] [%] | viability, T/C [13] [%] | viability, T/C [14] [%] | viability, T/C [15] [%] | viability, T/C [18] [%] | viability, T/C [19] [%] | viability, T/C [20] [%] | viability, T/C [21] [%] | viability, T/C [24] [%] | viability, T/C [25] [%] | viability, T/C [26] [%] | other results
Nc1ccn(C2OC(CO)C(O)C2(F)F)c(=O)n1 (configuration not stated) + Cc1ccccc1N=Nc1ccc(NC(=O)c2ccnn2C)c(C)c1 | < 31.6 | < 31.6 | < 31.6 | < 31.6 | < 31.6 | 40.4 | 34.1 | 31 | 31.8 | 35.8 | 36.6 | 30.5 | 32 | 37.6 | 33.7 | 34.1 | 31.4 | 30.8 | 38.2 | 31 | viability, T/C [10]: 31%; viability, T/C [11]: 28.1%; viability, T/C [16]: 31.9%; viability, T/C [17]: 22.6%; viability, T/C [22]: 29.5%; viability, T/C [23]: 22.1%; viability, T/C [27]: 27.8%; viability, T/C [28]: 24.6%; viability, T/C [29]: 24.5%; viability, T/C [30]: 39.3%; viability, T/C [31]: 36.5%; viability, T/C [32]: 37.5%; viability, T/C [33]: 37.8%; viability, T/C [34]: 36.9%; viability, T/C [35]: 26.2%
CCN(c1cc(-c2ccc(CN3CCOCC3)cc2)cc(C(=O)NCc2c(C)cc(C)[nH]c2=O)c1C)C1CCOCC1 |  |  |  |  |  |  |  |  |  |  |  |  |  |  |  |  |  |  |  |  | viability, T/C (compound 0.00949 µM): 102% and 110% and 103%; viability, T/C (compound 0.03 µM): 111% and 109% and 112%; viability, T/C (compound 0.0949 µM): 103% and 98.8% and 101%; viability, T/C (compound 0.3 µM): 99.3% and 99% and 107%; viability, T/C (compound 0.949 µM): 122% and 101% and 121%; viability, T/C (compound 3 µM): 106% and 110% and 113%; IC50 (curve of compound): > 3000 nM
COc1cc(Nc2ncc3c(n2)-c2ccc(Cl)cc2C(c2c(F)cccc2OC)=NC3)ccc1C(=O)O + CC(CO)NC(=O)c1cc(-c2ccc(Cl)cc2)nn(-c2cnn(C)c2)c1=O | 6880 | 8340 | 5110 | 4360 | 3250 | 87.2 | 88.2 | 78.5 | 71 | 94.9 | 79.2 | 78.9 | 70.2 | 91.6 | 96.2 | 75.1 | 68.2 | 91.6 | 75.2 | 70.7 | viability, T/C [10]: 61.7%; viability, T/C [11]: 44.4%; viability, T/C [16]: 56.3%; viability, T/C [17]: 48.8%; viability, T/C [22]: 56.4%; viability, T/C [23]: 42.7%; viability, T/C [27]: 63.9%; viability, T/C [28]: 50.3%; viability, T/C [29]: 44.5%; viability, T/C [30]: 92%; viability, T/C [31]: 77.4%; viability, T/C [32]: 65%; viability, T/C [33]: 65%; viability, T/C [34]: 52.7%; viability, T/C [35]: 37.6%
Nc1ncn(C2CC(O)C(CO)O2)c(=O)n1 (configuration not stated) + Cc1cncc(-c2nc(NCCc3c[nH]c4ccccc34)c3ncn(C(C)C)c3n2)c1 | > 1000 | > 1000 | > 1000 | > 1000 | < 3.16 | 94.8 | 84.4 | 79.9 | 86.4 | 88 | 86.8 | 81.9 | 79.9 | 98.7 | 89.3 | 89.3 | 87.2 | 58.5 | 64.3 | 55.1 | viability, T/C (second compound 0.1 µM, first compound 0.00316 µM): 85.7%; viability, T/C (second compound 0.1 µM, first compound 0.01 µM): 98%; viability, T/C (second compound 0.316 µM, first compound 0.00316 µM): 109%; viability, T/C (second compound 0.316 µM, first compound 0.01 µM): 102%; viability, T/C (second compound 1 µM, first compound 0.00316 µM): 106%; viability, T/C (second compound 1 µM, first compound 0.01 µM): 116%; viability, T/C (second compound 3.16 µM, first compound 0.00316 µM): 56%; viability, T/C (second compound 3.16 µM, first compound 0.01 µM): 59.8%; viability, T/C [27]: 60%; viability, T/C (second compound 10 µM, first compound 0.00316 µM): 1.37%; viability, T/C (second compound 10 µM, first compound 0.01 µM): 1.38%; viability, T/C [30]: 1.23%; viability, T/C [31]: 1.12%; viability, T/C [32]: 1.02%; viability, T/C [33]: 1.63%
Nc1ccccc1NC(=O)c1ccc(CNC(=O)OCc2cccnc2)cc1 + CC(CO)NC(=O)c1cc(-c2ccc(Cl)cc2)nn(-c2cnn(C)c2)c1=O | 401 | 428 | 461 | 413 | 335 | 82.4 | 86.8 | 56.2 | 19.3 | 72.8 | 71.6 | 59.7 | 22.6 | 77.8 | 79.9 | 64.5 | 19.6 | 74.3 | 71.6 | 59.3 | viability, T/C [10]: 2.71%; viability, T/C [11]: 0.45%; viability, T/C [16]: 2.65%; viability, T/C [17]: 0.63%; viability, T/C [22]: 3.74%; viability, T/C [23]: 0.67%; viability, T/C [27]: 19.7%; viability, T/C [28]: 2.42%; viability, T/C [29]: 0.89%; viability, T/C [30]: 70.4%; viability, T/C [31]: 77%; viability, T/C [32]: 48.1%; viability, T/C [33]: 21.8%; viability, T/C [34]: 3.12%; viability, T/C [35]: 1.17%
